# ChEMBL document CHEMBL6087397, “H2S-releasing oridonin derivatives with improved antitumor activity by inhibiting the PI3K/AKT pathway” (Bioorg Med Chem, 2024)
# Active and inactive are the calls of the source. The calls are words filed in the database; no cut-off is given here.
# What was measured:
# [1] = system: MCF7; experiment: Induction of apoptosis in human MCF7 cells assessed as increase in fluorescence intensity at 2.5 uM incubated for 48 hrs by Hoechst 33342 staining based fluorescence microscopic analysis; type: functional, cell-based
# [2] = Toxicity in female BALB/c mouse xenografted with mouse 4T1 cells assessed as morphological change in heart at 10 mg/kg, ip administered every 2 days by H and E staining based analysis; type: organism-based; settings: in vivo, 48 h
# [3] = system: MIA PaCa-2; experiment: Inhibition of colony formation in human MIA PaCa-2 cells assessed as reduction in number of colonies at 0.5 to 1.0 uM incubated for […] by crystal violet staining based microscopic analysis; type: functional, cell-based; settings: dose 0.5-1 µM
# [4] = system: MIA PaCa-2; experiment: Induction of mitochondrial dysfunction in human MIA PaCa-2 cells assessed as decrease in MMP level at 2.5 to 5.0 uM by measuring green fluorescence incubated for 48 hrs by JC-1 staining based flow cytometric analysis; type: functional, cell-based; settings: dose 2.5-5 µM
# [5] = system: MCF7; experiment: Induction of mitochondrial dysfunction in human MCF7 cells assessed as decrease in ATP level incubated for 48 hrs by ATP assay kit; type: functional, cell-based; settings: dose 2.5-10 µM
# [6] = system: MCF7; experiment: Induction of apoptosis in human MCF7 cells assessed as late apoptotic cells at 20 uM incubated for 48 hrs by Annexin V-FITC/PI staining based flow cytometric analysis (reference value: 20.2%); type: functional
# [7] = system: MCF7; experiment: Induction of apoptosis in human MCF7 cells assessed as increase in nuclear fragmentation at 2.5 uM incubated for 48 hrs by Hoechst 33342 staining based fluorescence microscopic analysis; type: functional, cell-based
# [8] = system: MCF7; experiment: Induction of apoptosis in human MCF7 cells assessed as increase in cleaved caspase-3 level at 1.25 to 5.0 uM incubated for 48 hrs by Western blotting analysis; type: functional, cell-based; settings: dose 1.25-5 µM
# [9] = system: MCF7; experiment: Induction of mitochondrial apoptosis pathway in human MCF7 cells assessed as downregulation of pro-caspase-9 expression at 1.25 to 5.0 uM incubated for 48 hrs by Western blotting analysis; type: functional, cell-based; settings: dose 1.25-5 µM
# [10] = system: MCF7; experiment: Induction of cell cycle arrest in human MCF7 cells assessed as increase in accumulation of cells at G2/M phase at 10 uM incubated for 48 hrs by PI staining based flow cytometric analysis (reference value: 6.7%); type: functional
# [11] = system: MIA PaCa-2; experiment: Inhibition of cell invasion in human MIA PaCa-2 cells assessed as decrease in number of invading cells at 0.5 to 1.0 uM incubated for 48 hrs by crystal violet staining based transwell microscopic analysis relative to control; type: functional; settings: dose 0.5-1 µM
# [12] = system: HepG2; experiment: Antiproliferative activity against human HepG2 cells assessed as inhibition of cell proliferation incubated for 48 hrs by CCK-8 assay; type: functional, cell-based; settings: HepG2, 48 h
# [13] = system: 4T1; experiment: Antitumor activity against mouse 4T1 cells xenografted in female BALB/c mouse assessed as tumor inhibition rate at 10 mg/kg, ip administered every 2 days relative to control; type: functional; settings: 4T1, 48 h, read-out: TGI
smiles,measurement,setting,value
C=C1C(=O)[C@]23[C@H](OC(=O)c4ccc(N=C=S)cc4)[C@H]1CC[C@H]2[C@@]12CO[C@]3(O)[C@@H](O)[C@@H]1C(C)(C)CC[C@@H]2O,Activity,[1],Active
same,Activity,[2],Non-toxic
same,inhibition,[3],Active
same,Activity,[4],Active
same,Activity,[5],Dose-dependent-effect
same,Activity,[6],57%
same,Activity,[7],Active
same,Activity,[8],Active
same,Activity,[9],Active
same,Activity,[10],14%
same,inhibition (INH),[11],~70%
same,IC50,[12],7.48 µM
same,inhibition in vivo at 10 mg/kg,[13],34.3%
